Where a SMILES comes first, the peptide text is derived from it. Bridges are numbered along the chain shown (N, C = ends).
Molecular target: T1, C1a receptor (C1a-type calcitonin receptor) (Rattus norvegicus, UniProt P32214)
T1 construct: expressed in transfected cells
T1 sequence (P32214 25-479 isoform P32214-2 limits assumed): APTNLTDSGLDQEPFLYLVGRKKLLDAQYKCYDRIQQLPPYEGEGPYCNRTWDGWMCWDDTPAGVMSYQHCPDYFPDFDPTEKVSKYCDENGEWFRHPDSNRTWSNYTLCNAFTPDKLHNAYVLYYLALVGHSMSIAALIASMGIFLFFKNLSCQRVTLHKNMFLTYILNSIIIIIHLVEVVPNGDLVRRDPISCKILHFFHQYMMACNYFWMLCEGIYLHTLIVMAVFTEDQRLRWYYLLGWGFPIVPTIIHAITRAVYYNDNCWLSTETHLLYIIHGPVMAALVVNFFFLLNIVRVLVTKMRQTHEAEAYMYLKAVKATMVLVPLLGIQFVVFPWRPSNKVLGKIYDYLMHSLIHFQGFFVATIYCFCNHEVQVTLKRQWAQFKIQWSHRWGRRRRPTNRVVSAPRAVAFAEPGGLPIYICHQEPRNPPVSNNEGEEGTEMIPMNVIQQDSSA
Test: biochemical
Conditions: HEK293 plasma membranes, [35S]-GTPγS 200 pM; read-out: ED50 (nM) Example B (C1a GTPγS)
Text: Peptide compounds of the present invention may be evaluated for agonist activity using the procedures described in Example B. The plasma membrane preparation of a 7-transmembrane-G-protein coupled receptor (GPCR) contains not only the receptor but also the G-proteins which constitute the first step in the intracellular signal transduction process when the receptor is activated by an agonist ligand. […] Agonist activation of a GPCR is accompanied by displacement of GDP by GTP from this site. Thus, measurement of the binding of a radiolabelled ligand, namely [^35 S]-GTPγS, for this binding site constitutes a measure of agonist potency for a given ligand. For agonism at the C1a receptor, a similar membrane preparation to that described below for the C1a binding studies is used. C1a pcDNA construction and transfection were carried out as previously described (Albrandt et al. 1993, FEBS Letters, 325:225-232). HEK293 cell lines showing stable expression of the rat C1a-type calcitonin receptor (C1a/293) or the human C1a-type calcitonin receptor (1154/293) were selected by G418 resistance and limiting dilution culture methods. Plasma membranes were collected from homogenized HEK293 cells and used in the [^35 S]-GTPγS assay. Individual test peptides at concentrations spanning 6 log units starting at around […] were examined for their ability to bind [^35 S]-GTPγS. Maximum agonist-specific binding was measured in the presence of 1 μM human calcitonin, constitutive binding was measured in the presence of buffer alone. Peptide potencies (EC50 's for concentration response curves) were calculated by non-linear regression using Prism™ (version 2.01, GraphPAD Software, San Diego, Calif.).
[^35 S]-GTPγS C1a Agonist Studies
Evaluation of the agonist activity of compounds versus the C1a receptor was carried out as follows:
Reference peptides used in these studies were purchased from Bachem (Torrance, Calif.). All other chemicals were of the highest commercial grade. [^35 S]-GTPγS was purchased from NEN Life Science Products, Inc., Pittsburgh, Pa. [^125 I]-human calcitonin was purchased from Amersham Pharmacia Biotech, Inc., Piscataway, N.J.
Methods for C1a pcDNA construction and transfection have been previously described (Albrandt, et al. 1993, FEBS Letters, 325:225-232). HEK293 cell lines stably expressing the rat C1a-type calcitonin receptor (C1a/293) or the human C1a-type calcitonin receptor (1154/293) were selected by G418 resistance and limiting dilution culture methods.
Confluent cells were detached from tissue culture flasks by incubation with 5 mM EDTA in PBS. Cells were homogenized in ice-cold 20 mM HEPES, pH 7.4 with a Polytron homogenizer. Plasma membranes were collected using three cycles of washing in fresh buffer followed by centrifugation for 15 minutes at 48,000×g. The final membrane pellet was resuspended in 20 mM HEPES buffer containing 0.2 mM phenylmethylsulfonyl fluoride (PMSF) and stored at -70° C.
Assay buffer contained 1 μM GDP, 1 mM EDTA, 5 mM MgCl2, 20 mM Hepes, and 150 mM NaCl, pH 7.4. Membranes (7.5 μg membrane protein/well), [^35 S]-GTPγS (200 pM), and peptides were combined in 200 μL buffer in 96-well microtiter plates. After a 75 minute incubation at room temperature, well contents were harvested onto GF/B glass fiber pads using a Tomtec Mach II plate harvestor (Hamden, Conn.). Dried pads were combined with scintillant and counted on a Wallac LKB Beta Plate scintillation counter. For concentration response curves, samples were run in duplicate over a 6 log concentration range starting at 10^-6 M or 10^-7 M. Maximum agonist-specific binding was measured in the presence of 1 μM human calcitonin, constitutive binding was measured in the presence of buffer alone.
Peptide potencies (1C50 's for competitive binding, and EC50 's for concentration response curves) were calculated by non-linear regression using Prism (version 2.01, GraphPAD Software, San Diego, Calif.).

Row | Structure (SMILES) | EC50 [nM]
1 | CC(C)C[C@H](NC(=O)[C@H](CCCNC(=N)N)NC(=O)[C@H](C)NC(=O)[C@@H](NC(=O)[C@H](C)NC(=O)[C@@H]1CSSC[C@H](NC(=O)[C@@H](N)CCCCN)C(=O)N[C@@H](CC(N)=O)C(=O)N[C@@H]([C@@H](C)O)C(=O)N[C@@H](C)C(=O)N[C@@H]([C@@H](C)O)C(=O)N1)[C@@H](C)O)C(=O)N[C@@H](C)C(=O)N[C@@H](C)C(=O)N[C@@H](Cc1ccccc1)C(=O)N[C@@H](CC(C)C)C(=O)N[C@@H](C)C(=O)N[C@@H](CCCNC(=N)N)C(=O)N[C@@H](CO)C(=O)N[C@@H](CO)C(=O)NCC(=O)N[C@@H](Cc1ccc(O)cc1)C(N)=O [Example 1] (H-KCNTATCATARLAAFLARSSGY-NH2; disulfide 2-7) | 0.7
2 | CC(C)C[C@H](NC(=O)[C@H](CCCNC(=N)N)NC(=O)[C@H](C)NC(=O)[C@@H](NC(=O)[C@H](C)NC(=O)[C@@H]1CSSC[C@H](N)C(=O)N[C@@H](CC(N)=O)C(=O)N[C@@H]([C@@H](C)O)C(=O)N[C@@H](C)C(=O)N[C@@H]([C@@H](C)O)C(=O)N1)[C@@H](C)O)C(=O)N[C@@H](C)C(=O)N[C@@H](C)C(=O)N[C@@H](Cc1ccccc1)C(=O)N[C@@H](CC(C)C)C(=O)N[C@@H](C)C(=O)N[C@@H](CCCNC(=N)N)C(=O)N[C@@H](CO)C(N)=O [Example 3] (H-CNTATCATARLAAFLARS-NH2; disulfide 1-6) | 1.2
3 | CC(C)C[C@H](NC(=O)[C@H](CCCNC(=N)N)NC(=O)[C@H](C)NC(=O)[C@@H](NC(=O)[C@H](C)NC(=O)[C@@H]1CSSC[C@H](NC(=O)[C@@H](N)CCCCN)C(=O)N[C@@H](CC(N)=O)C(=O)N[C@@H]([C@@H](C)O)C(=O)N[C@@H](C)C(=O)N[C@@H]([C@@H](C)O)C(=O)N1)[C@@H](C)O)C(=O)N[C@@H](C)C(=O)N[C@@H](CC(N)=O)C(=O)N[C@@H](Cc1ccccc1)C(=O)N[C@@H](CC(C)C)C(=O)N[C@H](C(=O)N[C@@H](CCCNC(=N)N)C(=O)N[C@@H](CO)C(=O)N[C@@H](CO)C(=O)NCC(=O)N[C@@H](Cc1ccc(O)cc1)C(N)=O)C(C)C [Example 5] (H-KCNTATCATARLANFLVRSSGY-NH2; disulfide 2-7) | 5.5
4 | CC(C)C[C@H](NC(=O)[C@H](CCCNC(=N)N)NC(=O)[C@H](C)NC(=O)[C@@H](NC(=O)[C@H](C)NC(=O)[C@H](C)NC(=O)[C@@H](NC(=O)[C@H](CO)NC(=O)[C@@H](N)CC(C)C)[C@@H](C)O)[C@@H](C)O)C(=O)N[C@@H](C)C(=O)N[C@@H](C)C(=O)N[C@@H](Cc1ccccc1)C(=O)N[C@@H](CC(C)C)C(=O)N[C@@H](C)C(=O)N[C@@H](CCCNC(=N)N)C(=O)N[C@@H](CO)C(N)=O [Example 6] (H-LSTAATARLAAFLARS-NH2) | 0.58

Source: patent US6087334A, “Anti-diabetic peptides” (Amylin Pharmaceuticals, Inc., priority 1998, dated 2000)
